Results published in the NIST ThermoML archive (doi:10.1016/j.jct.2018.09.027).

Assay: molar heat capacity at constant pressure
Details: 100 kPa, Crystal, DSC

O=c1oc2c(O)c(O)cc3c(=O)oc4c(O)c(O)cc1c4c23 [2,3,7,8-tetrahydroxychromeno[5,4,3-cde]chromene-5,10-dione]
Details	molar heat capacity at constant pressure [J/K/mol]
260.15 K	292.07
261.15 K	292.68
262.15 K	293.58
263.15 K	294.64
264.15 K	295.85
265.15 K	297.06
266.15 K	297.97
267.15 K	298.87
268.15 K	299.93
269.15 K	301.59
270.15 K	303.41
271.15 K	303.41
272.15 K	304.01
273.15 K	305.37
274.15 K	307.49
275.15 K	308.39
276.15 K	308.09
277.15 K	308.54
278.15 K	310.36
279.15 K	311.57
280.15 K	311.26
281.15 K	312.62
282.15 K	314.29
283.15 K	315.19
284.15 K	315.95
285.15 K	316.25
286.15 K	317.16
287.15 K	318.97
288.15 K	320.33
289.15 K	319.72
290.15 K	320.48
291.15 K	321.84
292.15 K	323.35
293.15 K	323.05
294.15 K	324.26
295.15 K	325.47
296.15 K	326.4
297.15 K	327.73
298.15 K	328.85
299.15 K	329.64
300.15 K	330.7
301.15 K	331.91
302.15 K	332.12
303.15 K	333.63
304.15 K	334.99
305.15 K	335.69
306.15 K	336.45
307.15 K	337.53
308.15 K	338.02
309.15 K	339.27
310.15 K	339.49
311.15 K	340.77
312.15 K	341.16
313.15 K	342.26
314.15 K	343.3
315.15 K	343.78
316.15 K	345.03
317.15 K	346.85
318.15 K	347.5
319.15 K	348.3
320.15 K	349.21
321.15 K	350.81
322.15 K	351.92
323.15 K	352.53
324.15 K	353.13
325.15 K	354.43
326.15 K	355.55
327.15 K	356.86
328.15 K	357.07
329.15 K	358.38
330.15 K	359.69
331.15 K	361.39
332.15 K	362.3
333.15 K	363.1
334.15 K	364.21
335.15 K	365.02
336.15 K	366.23
337.15 K	367.13
338.15 K	368.24
339.15 K	369.55
340.15 K	370.36
341.15 K	370.96
342.15 K	371.07
343.15 K	372.48
344.15 K	373.08
345.15 K	373.69
346.15 K	374.1
347.15 K	375.31
348.15 K	376.31
349.15 K	377.02
350.15 K	378.82
351.15 K	379.03
352.15 K	379.54
353.15 K	381.35
354.15 K	383.99
355.15 K	385.91
356.15 K	385.3
357.15 K	386.51
358.15 K	387.62
359.15 K	388.02
360.15 K	390.04
361.15 K	391.3
362.15 K	392.55
363.15 K	393.1
364.15 K	393.5
365.15 K	394.2
366.15 K	395.1
367.15 K	396
368.15 K	396.5
369.15 K	397.3
370.15 K	397.8
371.15 K	398
372.15 K	399.5
373.15 K	400.1
374.15 K	401.2
375.15 K	402.5
376.15 K	403.1
377.15 K	403.8
378.15 K	404.5
379.15 K	405.3
380.15 K	406.12
381.15 K	407.6
382.15 K	408.2
383.15 K	409.5
384.15 K	410.1
385.15 K	411.31
386.15 K	412.22
387.15 K	413.52
388.15 K	414.82
389.15 K	415.43
390.15 K	416.64
391.15 K	417.54
392.15 K	418.85
393.15 K	419.15
394.15 K	420.36
395.15 K	421.26
396.15 K	421.57
397.15 K	422.17
398.15 K	423.08
399.15 K	423.98
400.15 K	424.59
401.15 K	424.59
402.15 K	425.19
403.15 K	426.4
404.15 K	427.31
405.15 K	427
406.15 K	427.31
407.15 K	427.91
408.15 K	429.42
409.15 K	430.03
410.15 K	430.78
411.15 K	431.39
412.15 K	432.44
413.15 K	432.9
414.15 K	433.5
415.15 K	434.56
416.15 K	435.77
417.15 K	436.2
418.15 K	437
419.15 K	438.2
420.15 K	439.1
421.15 K	440.5
422.15 K	441.2
423.15 K	442.3
424.15 K	443.93
425.15 K	444.5
426.15 K	444.8
427.15 K	445.1
428.15 K	445.9
429.15 K	446.2
430.15 K	446.8
431.15 K	447.3
432.15 K	448.2
433.15 K	448.6
434.15 K	449.4
435.15 K	450.58
436.15 K	451.79
437.15 K	452.39
438.15 K	452.69
439.15 K	452.99
440.15 K	453.9
441.15 K	454.71
442.15 K	455.32
443.15 K	455.41
444.15 K	455.71
445.15 K	456.02
446.15 K	457.53
447.15 K	457.83
448.15 K	458.43
449.15 K	459.04
450.15 K	459.64
451.15 K	459.94
452.15 K	460.2
453.15 K	460.85
454.15 K	461.14
455.15 K	460.85
456.15 K	461.3
457.15 K	461.76
458.15 K	462.11
459.15 K	462.61
460.15 K	463.82
461.15 K	464.57
462.15 K	465.08
463.15 K	466.38
464.15 K	467.05
465.15 K	468.71
466.15 K	468.5
467.15 K	469
468.15 K	469.5
469.15 K	470.1
470.15 K	470.8
471.15 K	471.2
472.15 K	471.5
473.15 K	472.94
474.15 K	473.85
475.15 K	474.15
476.15 K	474.75
477.15 K	475.05
478.15 K	476.26
479.15 K	477.17
480.15 K	477.47
481.15 K	478.38
482.15 K	479.59
483.15 K	480.19
484.15 K	480.39
485.15 K	481.19
486.15 K	482
487.15 K	482.31
488.15 K	482.61
489.15 K	483.31
490.15 K	484.21
491.15 K	485.63
492.15 K	486.93
493.15 K	487.54
494.15 K	488.84
495.15 K	489.26
496.15 K	489.26
497.15 K	489.56
498.15 K	489.26
499.15 K	490.77
500.15 K	491.28
501.15 K	492.18
502.15 K	493.28
503.15 K	494.19
504.15 K	495
505.15 K	495.3
506.15 K	495
507.15 K	494.7
508.15 K	495
509.15 K	495
510.15 K	495.3
511.15 K	496
512.15 K	497.72
513.15 K	497.82
514.15 K	498.32
515.15 K	499.23
516.15 K	499.5
517.15 K	500.1
518.15 K	501.3
519.15 K	501.8
520.15 K	502.5
521.15 K	503.1
522.15 K	503.6
